# Test results from patent publication US10934303B2, “Aryl ethene derivative and pharmaceutical composition containing same as active ingredient” (priority 2016, dated 2021).
# Experiments:
# GST-bound ERR alpha LBD = GST-bound ERR alpha LBD (Homo sapiens (Human), UniProt P11474); settings: TR-FRET, PGC1a coactivator; read-out: Binding Assay, IC50 ERRα
# Protocol: (§2) The arylethene derivative of the present invention was sequentially added to a 384 well plate from a concentration of 10 μM to a final concentration of two-fold dilution. […] After all reagents were added, a reaction was carried out with gentle shaking at 20° C. for 1 hour, and after the reaction, a binding activity was measured by a TR-FRET method.
# [1] = 1 μM, 30 minutes, 37° C., NADPH
# hERG channel = hERG channel (Homo sapiens (Human), UniProt Q12809); settings: read-out: hERG IC50; fluorescence polarization assay
# [2] = 1 μM, 30 minutes, 37° C., NADPH; remark: listed apart in the source
# [3] = 1 μM, 30 minutes, 37° C., NADPH; remark: listed apart in the source
# [4] = target: GST-bound ER alpha ligand-binding domain (LBD) (Homo sapiens (Human), UniProt P03372); assay: biochemical; settings: TR-FRET, beta-estradiol 4 nM as agonist; read-out: Binding Assay, IC50 ERα
# Protocol: as §2
# [5] = 1 μM, 30 minutes, 37° C., NADPH; remark: listed apart in the source
# CYP2C19 = CYP2C19 (Homo sapiens (Human), UniProt P33261); assay: Cytochrome P450 activity inhibition, CYP2C19; format: in vitro ADME; settings: 10 μM, human liver microsomes, S-mephenytoin substrate
# Excerpt: (§1) 1) Cytochrome P450 (CYP450) Activity Inhibition Evaluation
# CYP2C9 = CYP2C9 (Homo sapiens (Human), UniProt P11712); assay: Cytochrome P450 activity inhibition, CYP2C9; format: in vitro ADME; settings: 10 μM, human liver microsomes, Diclofenac substrate
# Excerpt: as §1
# in vitro = in vitro ADME; settings: PBS pH 7.4, 25° C., 5 hours
# CYP2D6 = CYP2D6 (Homo sapiens (Human), UniProt P10635); assay: Cytochrome P450 activity inhibition, CYP2D6; format: in vitro ADME; settings: 10 μM, human liver microsomes, Dextromethorphan substrate
# Excerpt: as §1
# ERRγ = format: cell-based; settings: for Functional Assay at 10 μM (% of control), Cpds: 24 hours, AD293; for Functional Assay, Cpds/Ref 5182: activity relative to reference compound GSK5182, 10 μM
# Protocol: AD293 was cultured in a 24-well plate for 24 hours, using a DMEM High glucose culture medium (Hyclone, USA) to which 0.5% FBS was added at a concentration of 9×10^4/well. The culture medium was replaced with a DMEM High glucose culture medium to which 10% FBS was added, treatment was performed with a mixture of a TransIT-LT1 transfection reagent (Mirus, USA) and pCMX-Gal4-ERRγ, pFR-luciferase reporter plasmid, pCMV-β-gal, and culturing was performed for 24 hours. Thereafter, a luciferase activity assay and a β-gal assay were performed, respectively, with a lysate obtained after treatment with the arylethene derivative of the present invention for 24 hours. All results were derived from three or more independent repetitive experiments.
# CYP1A2 = CYP1A2 (Homo sapiens (Human), UniProt P05177); assay: Cytochrome P450 activity inhibition, CYP1A2; format: in vitro ADME; settings: 10 μM, human liver microsomes, Phenacetin substrate
# Excerpt: as §1
# CYP3A4 = CYP3A4 (Homo sapiens (Human), UniProt P08684); assay: Cytochrome P450 activity inhibition, CYP3A4; format: in vitro ADME; settings: 10 μM, human liver microsomes, Midazolam substrate
# Excerpt: as §1
# in vivo = format: in vivo; settings: rat; for Cmax: read-out: Cmax
# ERRβ = ERRβ (Homo sapiens, UniProt O95718); settings: TR-FRET, PGC1a coactivator; read-out: Binding Assay, IC50 ERRβ
# ERRβ, sequence (O95718 whole entry, looked up, the tested form may be a part): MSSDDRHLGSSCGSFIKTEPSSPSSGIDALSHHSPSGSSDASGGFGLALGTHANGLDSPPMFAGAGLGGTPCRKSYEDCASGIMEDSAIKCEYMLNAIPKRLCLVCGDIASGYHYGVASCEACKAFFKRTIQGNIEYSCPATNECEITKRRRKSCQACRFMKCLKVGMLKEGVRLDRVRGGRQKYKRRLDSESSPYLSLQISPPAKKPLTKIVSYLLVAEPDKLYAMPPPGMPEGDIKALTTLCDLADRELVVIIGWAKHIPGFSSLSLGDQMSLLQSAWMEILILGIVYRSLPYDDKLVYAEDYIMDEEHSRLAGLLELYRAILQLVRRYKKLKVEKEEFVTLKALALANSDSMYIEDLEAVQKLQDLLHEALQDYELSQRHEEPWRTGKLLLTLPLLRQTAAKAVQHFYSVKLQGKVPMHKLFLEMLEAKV
# Protocol: as §2
# CYP1A2, sequence (P05177 whole entry): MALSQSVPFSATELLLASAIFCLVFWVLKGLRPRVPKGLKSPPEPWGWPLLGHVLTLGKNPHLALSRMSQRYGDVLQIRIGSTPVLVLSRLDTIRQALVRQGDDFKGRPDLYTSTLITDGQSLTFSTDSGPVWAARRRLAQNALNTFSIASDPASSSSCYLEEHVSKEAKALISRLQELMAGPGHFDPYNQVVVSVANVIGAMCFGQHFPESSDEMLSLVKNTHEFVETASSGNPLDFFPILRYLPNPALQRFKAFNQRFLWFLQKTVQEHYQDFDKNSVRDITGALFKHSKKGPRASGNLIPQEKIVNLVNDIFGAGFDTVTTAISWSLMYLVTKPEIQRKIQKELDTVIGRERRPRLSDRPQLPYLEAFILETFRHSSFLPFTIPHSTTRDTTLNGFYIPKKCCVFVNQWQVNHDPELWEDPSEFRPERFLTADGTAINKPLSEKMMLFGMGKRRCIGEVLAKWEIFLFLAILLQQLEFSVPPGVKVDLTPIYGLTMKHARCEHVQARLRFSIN
# CYP2D6, sequence (P10635 whole entry): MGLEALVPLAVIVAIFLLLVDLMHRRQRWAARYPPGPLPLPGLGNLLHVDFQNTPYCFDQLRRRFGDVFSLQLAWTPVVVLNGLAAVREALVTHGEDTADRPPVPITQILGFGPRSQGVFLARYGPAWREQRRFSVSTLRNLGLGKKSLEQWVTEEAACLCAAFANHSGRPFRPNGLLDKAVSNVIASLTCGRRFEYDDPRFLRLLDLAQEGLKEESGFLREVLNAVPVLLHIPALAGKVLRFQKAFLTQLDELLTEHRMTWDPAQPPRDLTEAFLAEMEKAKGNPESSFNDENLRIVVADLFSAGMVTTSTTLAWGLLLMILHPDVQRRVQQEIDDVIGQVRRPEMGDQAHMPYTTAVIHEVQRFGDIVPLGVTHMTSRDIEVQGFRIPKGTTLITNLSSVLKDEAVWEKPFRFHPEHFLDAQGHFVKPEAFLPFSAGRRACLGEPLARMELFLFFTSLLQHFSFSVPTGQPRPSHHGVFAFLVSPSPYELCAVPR
# CYP3A4, sequence (P08684 whole entry): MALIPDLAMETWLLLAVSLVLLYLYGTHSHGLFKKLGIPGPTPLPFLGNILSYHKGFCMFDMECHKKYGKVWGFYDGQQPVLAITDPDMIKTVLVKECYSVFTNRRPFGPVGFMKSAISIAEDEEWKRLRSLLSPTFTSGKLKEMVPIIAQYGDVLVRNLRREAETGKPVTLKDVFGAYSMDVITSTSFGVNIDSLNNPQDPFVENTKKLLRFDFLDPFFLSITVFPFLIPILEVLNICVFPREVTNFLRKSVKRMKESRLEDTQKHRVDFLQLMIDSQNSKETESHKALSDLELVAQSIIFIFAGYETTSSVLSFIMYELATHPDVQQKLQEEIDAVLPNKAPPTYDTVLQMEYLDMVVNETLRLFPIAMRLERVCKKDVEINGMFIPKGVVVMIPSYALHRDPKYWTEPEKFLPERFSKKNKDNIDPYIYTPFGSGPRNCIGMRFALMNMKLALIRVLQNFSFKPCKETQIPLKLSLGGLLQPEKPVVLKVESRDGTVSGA
# CYP2C19, sequence (P33261 whole entry): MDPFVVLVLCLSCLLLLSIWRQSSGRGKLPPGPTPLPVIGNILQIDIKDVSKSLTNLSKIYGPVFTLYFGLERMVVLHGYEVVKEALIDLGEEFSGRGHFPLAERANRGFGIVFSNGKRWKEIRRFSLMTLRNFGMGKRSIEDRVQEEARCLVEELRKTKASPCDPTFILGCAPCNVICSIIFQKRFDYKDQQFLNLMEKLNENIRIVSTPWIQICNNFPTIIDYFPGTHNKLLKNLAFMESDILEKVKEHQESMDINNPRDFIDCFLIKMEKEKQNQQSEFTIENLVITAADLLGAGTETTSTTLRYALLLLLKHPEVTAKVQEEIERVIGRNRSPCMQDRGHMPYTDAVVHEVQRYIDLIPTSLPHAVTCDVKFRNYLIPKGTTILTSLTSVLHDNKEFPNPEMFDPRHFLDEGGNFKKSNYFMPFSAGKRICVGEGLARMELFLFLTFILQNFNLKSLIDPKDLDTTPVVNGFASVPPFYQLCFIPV
# GST-bound ER alpha ligand-binding domain (LBD), sequence (P03372 whole entry, looked up, the tested form may be a part): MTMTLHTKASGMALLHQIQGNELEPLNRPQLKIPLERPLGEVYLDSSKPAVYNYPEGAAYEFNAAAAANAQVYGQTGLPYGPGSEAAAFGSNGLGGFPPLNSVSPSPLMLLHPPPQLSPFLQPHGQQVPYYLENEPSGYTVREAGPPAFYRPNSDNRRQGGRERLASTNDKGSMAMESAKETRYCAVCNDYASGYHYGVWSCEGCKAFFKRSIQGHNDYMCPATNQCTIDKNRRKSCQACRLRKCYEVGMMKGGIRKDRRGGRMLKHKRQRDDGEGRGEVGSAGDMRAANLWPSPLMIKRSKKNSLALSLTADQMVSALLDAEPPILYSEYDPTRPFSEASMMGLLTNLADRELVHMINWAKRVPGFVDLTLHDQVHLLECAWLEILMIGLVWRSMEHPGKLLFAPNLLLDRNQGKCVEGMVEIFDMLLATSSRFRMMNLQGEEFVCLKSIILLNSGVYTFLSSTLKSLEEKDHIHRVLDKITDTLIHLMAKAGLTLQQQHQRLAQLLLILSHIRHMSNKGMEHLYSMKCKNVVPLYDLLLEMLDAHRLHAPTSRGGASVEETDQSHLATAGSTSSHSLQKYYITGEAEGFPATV
# CYP2C9, sequence (P11712 whole entry): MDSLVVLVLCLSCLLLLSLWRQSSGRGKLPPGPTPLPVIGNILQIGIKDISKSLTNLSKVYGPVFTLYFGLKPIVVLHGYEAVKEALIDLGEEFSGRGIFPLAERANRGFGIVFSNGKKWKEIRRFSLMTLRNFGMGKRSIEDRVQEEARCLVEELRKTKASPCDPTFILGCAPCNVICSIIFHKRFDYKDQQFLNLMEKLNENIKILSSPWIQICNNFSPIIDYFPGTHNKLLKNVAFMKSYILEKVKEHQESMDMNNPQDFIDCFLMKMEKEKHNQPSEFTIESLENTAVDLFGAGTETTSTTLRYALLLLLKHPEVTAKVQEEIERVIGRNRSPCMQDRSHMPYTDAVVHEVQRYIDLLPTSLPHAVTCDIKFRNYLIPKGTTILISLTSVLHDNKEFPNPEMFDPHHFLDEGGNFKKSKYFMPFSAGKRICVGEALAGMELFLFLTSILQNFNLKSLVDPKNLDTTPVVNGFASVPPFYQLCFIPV
# GST-bound ERR alpha LBD, sequence (P11474 193-421): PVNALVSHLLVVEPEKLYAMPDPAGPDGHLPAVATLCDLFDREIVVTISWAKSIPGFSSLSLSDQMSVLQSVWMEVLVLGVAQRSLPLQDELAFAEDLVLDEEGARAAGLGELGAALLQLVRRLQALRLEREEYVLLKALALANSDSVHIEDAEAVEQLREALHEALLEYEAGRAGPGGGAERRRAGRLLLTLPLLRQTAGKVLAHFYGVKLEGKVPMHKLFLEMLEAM
SMILES,IC50 (GST-bound ERR alpha LBD) [µM],MS(Microsomal Stability) (%) rat [1] [%],IC50 (hERG channel) [µM],MS(Microsomal Stability) (%) dog [2] [%],MS(Microsomal Stability) (%) mouse [3] [%],IC50 [4] [µM],MS(Microsomal Stability) (%) human [5] [%],CYP inhibition (% of control) 2C19 (CYP2C19),CYP inhibition (% of control) 2C9 (CYP2C9),Permeability Pampa (in vitro),CYP inhibition (% of control) 2D6 (CYP2D6),"Functional Assay at 10 μM (% of control), Cpds (ERRγ)","Functional Assay, Cpds/Ref 5182 (ERRγ)",CYP inhibition (% of control) 1A2 (CYP1A2),CYP inhibition (% of control) 3A4 (CYP3A4),other results
CC(C)N1CCC(c2ccc(/C(=C(/CCCO)c3ccccc3)c3ccc(O)cc3)cc2)CC1 [Compound 22g],> 10,43.2,22,54.3,10.7,4.37,42.8,–,–,–,–,–,–,–,–,–
Cc1ccc(/C(=C(\CCCO)c2ccccc2)c2ccc(N3CCN(C)CC3)cc2)cc1 [Compound 18f],> 10,65.7,18.9,–,47.6,> 10,79.2,72.8 % of control,62.3 % of control,4.84 10^−6 cm/s,68.2 % of control,2.57 % of control,0.82,>100 % of control,70.9 % of control,"AUCINF (in vivo; IV, 1 mg/kg): 0.29 μMh; AUCall (in vivo; IV, 1 mg/kg): 0.28 μMh; Vss (in vivo; IV, 1 mg/kg): 30.3 L/kg; t1/2 (in vivo; IV, 1 mg/kg): 2.5 h; AUCINF (in vivo; PO, 10 mg/kg): 7.00 μMh; AUCall (in vivo; PO, 10 mg/kg): 2.93 μMh; BA (in vivo; PO, 10 mg/kg): 41.2%; Tmax (in vivo; PO, 10 mg/kg): 2.4 h; Cmax (in vivo; PO, 10 mg/kg): 450 nM"
CN1CCN(c2ccc(/C(=C(/CCCO)c3ccccc3)c3ccc(O)cc3)cc2)CC1 [Compound 18d],> 10,–,> 20,–,–,1.7,–,81.2 % of control,67.7 % of control,0.14 10^−6 cm/s,98.4 % of control,9.65 % of control,0.97,88 % of control,64 % of control,–
OCCC/C(=C(/c1ccc(C2CCN(C3CC3)CC2)cc1)c1cccc(O)c1)c1ccccc1 [Compound 22r],–,49.9,16.4,56.9,24.5,–,62.0,>100 % of control,>100 % of control,–,91.8 % of control,–,–,>100 % of control,82.7 % of control,"AUCINF (in vivo; IV, 1 mg/kg): 0.87 μMh; AUCall (in vivo; IV, 1 mg/kg): 0.85 μMh; Vss (in vivo; IV, 1 mg/kg): 4.6 L/kg; t1/2 (in vivo; IV, 1 mg/kg): 1.8 h; AUCINF (in vivo; PO, 10 mg/kg): 5.29 μMh; AUCall (in vivo; PO, 10 mg/kg): 4.93 μMh; BA (in vivo; PO, 10 mg/kg): 58.2%; Tmax (in vivo; PO, 10 mg/kg): 1 h; t1/2 (in vivo; PO, 10 mg/kg): 2.3 h; Cmax (in vivo; PO, 10 mg/kg): 1510 nM"
CC(C)N1CCN(c2ccc(/C(=C(/CCCO)c3ccccc3)c3ccc([N+](=O)[O-])cc3)cc2)CC1 [Compound 18g],–,85.3,17.9,84.9,84.1,–,87.9,–,–,4.8 10^−6 cm/s,–,1.62 % of control,0.84,–,–,–
OCCC/C(=C(\c1ccc(O)cc1)c1ccc(C2=CCN(C3CC3)CC2)cc1)c1ccccc1 [Compound 22j],–,65.5,8.8,54.9,34.9,–,65.2,89.6 % of control,88 % of control,–,97.1 % of control,–,–,95.7 % of control,85 % of control,–
CN1CCN(c2ccc(/C(=C(/CCCO)c3ccccc3)c3ccc([N+](=O)[O-])cc3)cc2)CC1 [Compound 18c],–,72.8,11.6,–,–,–,96.9,80 % of control,81.7 % of control,5.73 10^−6 cm/s,75.6 % of control,1.31 % of control,0.42,92.2 % of control,64.1 % of control,–
CC(C)(C)OC(=O)N1CCN(c2ccc(/C(=C(/CCCO)c3ccccc3)c3ccc(Br)cc3)cc2)CC1 [Compound 18n],8.25,–,–,–,–,8.8,–,–,–,0.63 10^−6 cm/s,–,3.36 % of control,0.82,–,–,IC50 (ERRβ): 1.09 µM
